Measured values from PMC7150796 (Viruses, 2020).
“Also recorded” adds a separate entry of the source. Like-named read-outs stand apart in the source and are kept apart here.

Experiments:
[1] = tested on: wt ZIKV Asian lineage (BeH819015, Brazil strain); assay: Plaque inhibition assay, wt ZIKV Asian lineage; settings: Vero B4 cells, 4 days
[2] = tested on: ZIKV; assay: Focus-forming assay, ZIKV; assay type: cell-based, Zika virus; settings: MOI 0.1, Vero B4, 24 hpi
[3] = Resazurin cell viability (cell toxicity) assay; settings: African green monkey
[4] = tested on: WNV; assay: Focus-forming assay, WNV; assay type: cell-based, West Nile virus
[5] = tested on: rZIKV-ZsGreen; assay: Time of drug addition assay
[6] = tested on: two wt ZIKV lineages, Asian and African; assay type: cell-based, Zika virus; settings: 2.5 µM
[7] = tested on: TBEV; assay type: cell-based, tick-borne encephalitis virus; settings: MOI 0.1, Vero B4, 24 hpi
[8] = tested on: wt ZIKV African lineage (MR766, Uganda strain); assay: Plaque inhibition assay, wt ZIKV African lineage; assay type: cell-based, Zika virus; settings: 2.5 µM, Vero B4 cells, 4 days
[9] = tested on: YFV; assay type: cell-based, yellow fever virus; settings: MOI 0.1, Vero B4, 48 hpi
[10] = tested on: rZIKV-ZsGreen; assay: microbe, parasite or virus in culture; assay type: cell-based, Zika virus; settings: 24 h; for EC50 / EC90: Zika virus, Vero; for EC50: read-out: Inhibition Efficacy EC50; for EC90: read-out: Inhibition Efficacy EC90; for Inhibition Efficacy EC50 / Inhibition Efficacy EC90: rZIKV-ZsGreen, Vero B4 cells, inhibition of ZsGreen expression, highest concentration 100 µM
[11] = tested on: DENV2; assay: Focus-forming assay, DENV2; assay type: cell-based, dengue virus type 2
[12] = tested on: JEV; assay: Focus-forming assay, JEV; assay type: cell-based, Japanese encephalitis virus
[13] = tested on: ZIKV; settings: ref 40 (Lei Cai et al.); read-out: EC50 against ZIKV; cited from earlier work
[14] = in vitro; settings: African green monkey

Row | Compound | viability at 24 h, 25 µM [3] [%] | viability at 24 h, 50 µM [3] [%] | viability at 24 h, 100 µM [3] [%] | viral titer reduction [4] | EC50 [10] [µM] | EC90 [10] [µM] | viral titer reduction [11] | viral titer reduction [12] | Inhibition Efficacy EC50 [10] | Inhibition Efficacy EC90 [10] | other results
1 | O=C(Nc1cc(F)c(F)cc1C(=O)Nc1ccccc1C(=O)O)c1ccccc1F [Benzavir-2, 2-[4,5-Difluoro-2-(2-fluorobenzoylamino)-benzoylamino]benzoic acid] | 100 ± 1.8 | 96.8 ± 0.6 | 94.3 ± 1.8 | 2.2 × 10^4 fold | 0.8 ± 0.1 | 1.2 ± 0.3 | 5.6 × 10^4 fold | 7.5 × 10^3 fold | – | – | reduction of plaque formation ([1]; 2.5 µM, Asian lineage): 88%; plaque formation, dose-dependent ([1]; benzavir-2 from 20 to 0.6 µM): significant reduction of plaque formation at all applied concentrations; viral titer reduction ([2]; benzavir-2 2.5 µM): 1.0 × 10^3 fold; inhibitory effect, time of addition ([5]; 10 µM added at 2–4 h post-infection, read 24 h): most pronounced; inhibitory effect, time of addition ([5]; 10 µM, binding and entry steps (0–2 h), read 24 h): less affected; inhibitory effect, time of addition ([5]; 10 µM, later time-points post-infection, read 24 h): less inhibition; inhibitory effect, time of addition ([5]; 10 µM, pre-incubation prior to infection (−2 h), compared to 2–4 h): much lower; CPE in cells infected with progeny virus from treated cells ([6]; day 2 post-progeny virus transfer): minor CPE; plaque formation in cells infected with progeny virus from treated cells ([6]; day 4, crystal violet): only a few visible plaques; viral titer reduction ([7]; benzavir-2 2.5 µM): 7.5 × 10^3 fold; reduction of plaque formation [8]: 94%; viral titer reduction ([9]; benzavir-2 2.5 µM): 1.5 × 10^3 fold
2 | CC(C)(C)C(=O)Nc1cc(F)c(F)cc1C(=O)Nc1ccccc1C(=O)O [Compound 17d] | 105.1 ± 0.1 | 106 ± 4.2 | 104.9 ± 0.9 | – | – | – | – | – | no antiviral activity; also recorded: Not achieved | Not achieved | –
3 | O=C(Nc1cc(Cl)ccc1C(=O)Nc1ccccc1C(=O)O)c1ccccc1F [Compound 35f] | 105 ± 5 | 96.5 ± 3.7 | 92.1 ± 3.9 | – | 6.1 ± 1.4 | 14.9 ± 0.9 | – | – | – | – | –
4 | O=C(Nc1ccccc1C(=O)Nc1ccccc1C(=O)O)c1ccccc1 [Benzavir-1, 2-{[2-(benzoylamino)benzoyl]amino}-benzoic acid] | 98.8 ± 3.4 | 88.3 ± 1.4 | 88.1 ± 2.1 | – | 3 ± 0.1 | 3.3 ± 0.1 | – | – | – | – | –
5 | NC(=O)c1nc(F)c[nH]c1=O [Favipiravir, reference compound] | – | – | – | – | – | – | – | – | Not achieved | Not achieved | EC50 [13]: 111 ± 13.1 µM; viability at 24 h, 25 µM ([3]; Vero B4 cells): 97.4 ± 0.7%; viability at 24 h, 50 µM ([3]; Vero B4 cells): 95 ± 1.4%; viability at 24 h, 100 µM ([3]; Vero B4 cells): 97.9 ± 2.2%; Inhibition Efficacy EC50 ([10]; listed as favipiravir): no antiviral activity
6 | NC(=O)c1ncn([C@@H]2O[C@H](CO)[C@@H](O)[C@H]2O)n1 [Ribavirin, reference compound] | – | – | – | no significant activity | 45.5 ± 13.5 | 114 ± 18 | 1.1 × 10^1 fold | no significant activity | – | – | plaque formation, dose-dependent ([1]; ribavirin from 200 to 6.3 µM): only showed inhibition of plaque formation at 200 µM; viral titer reduction ([2]; ribavirin 50 µM): 1.0 × 10^1 fold; viability at 24 h, 25 µM [14]: 96 ± 1%; viability at 24 h, 50 µM [14]: 95 ± 2.8%; viability at 24 h, 100 µM [14]: 93.5 ± 3.4%; viral titer reduction ([7]; ribavirin 50 µM): 1.2 × 10^1 fold; viral titer reduction ([9]; ribavirin 50 µM): 0.9 × 10^1 fold
